Experimental data reported in patent US20220370395A1, “ENHANCER OF PHOTODYNAMIC EFFECT IN ALA-PDT OR ALA-PDD” (SBI PHARMACEUTICALS CO., LTD., priority 2017, published 2022).

Columns and labels:
[1] = cited from earlier work
[2] = system: cancer cell strains DU145, HT29, HCC2998, MKN7, MDA-MB-231, MCF-7; test: Intracellular and extracellular PpIX amount in cancer cell strains, ALA plus serial dilutions of inhibitor (Examples 1, 3, 4, 5); format: cell-based; conditions: in combination with 1 mM ALA; for extracellular PpIX amount (corrected with amount of protein) / intracellular PpIX amount (corrected with amount of protein): cultured 4 hours, compared to ALA alone, six cancer cell strains
Source text: Six types of cells strains were employed as cancer cell strains: […], large intestine cancer cell strains (HT29, HCC2998), stomach cancer cell strain (MKN7), and mammary gland cancer cell strains (MDA-MB-231, MCF-7). For the medium, RPMI 1640 (from Wako) supplemented with 5% inactivated fetal bovine serum (FBS, from Biowest) was employed (hereinafter referred to as RPMI medium). Two types of inhibitors are known to exist for dynamin: one is an inhibitor that targets the GAS domain, whereas the other is an inhibitor that targets the PH domain. Iminodyn22 (from abcam) was used as the inhibitor that targets the GAS domain. Further, OcTMAB (from abcam) was used as the inhibitor that targets the PH domain.
To 1 mg of OcTMAB was added 255 μL of dimethyl sulfoxide (DMSO, from Wako), and this was mixed to make an OcTMAB 10 mM stock solution. Further, to 1 mg of Iminodyn22 was added 208 μL of DMSO, and this was mixed to make an Iminodyn22 10 mM stock solution. The OcTMAB 10 mM stock solution was diluted with the RPMI medium to adjust to 16 μM. The Iminodyn22 10 mM stock solution was diluted with the RPMI medium to adjust to 40 μM. The OcTMAB and Iminodyn22 prepared were each serially diluted with the RPMI medium to create six serial dilutions. Each of these dynamin inhibitor-containing medium was mixed with an equal amount of the RPMI medium comprising 2 mM aminolevulinic acid hydrochloride salt (ALA) to prepare ALA/OcTMAB and ALA/Iminodyn22-containing mediums.
Each cancer cell strain was seeded in a 96-well plate (black with transparent bottom; from Corning) at a density of 1.25×10^4 cells/well (only MDA-MB-231 was seeded at 2.0×10^4 cells/well), and this was cultured overnight at 37° C. After the overnight culture, the culture supernatant was removed, 200 μL each of ALA/OcTMAB-containing medium or ALA/Iminodyn22-containing medium described above were added to each well, and this was cultured for 4 hours under a 37° C. condition. After 4 hours, 100 μL of each culture supernatant were transferred to another 96-well plate, and this was set as the extracellular PpIX measuring plate. The remaining culture supernatant was removed, each cell strain was washed once with phosphate buffered saline (PBS, from Wako), and then 100 μL per well of 1% dodecyl sodium sulfate (SDS, from Wako) aqueous solution was added to dissolve the cells, and this was set as the intracellular PpIX measuring plate. Protoporphyrin IX standard sample (PpIX, from Funakoshi Co., Ltd.) was dissolved in DMSO solution to create 1 mM PpIX stock solution. The 1 mM PpIX stock solution was diluted with each of 1% SDS solution and RPMI medium, and PpIX standard solutions with final concentrations of 0-1000 nM were prepared. The PpIX standard solutions prepared with 1% SDS were added to unused wells in the intracellular accumulation PpIX measuring plate, and the standard solutions prepared with the RPMI medium were added to unused portions of the extracellular export PpIX measuring plate at 100 μL each. The fluorescence intensity of the intracellular PpIX measuring plate and the extracellular PpIX measuring plate was measured with a microplate reader (infinite M200PRO; from TECAN) under the condition of excitation light at 405 nm and measurement wavelength at 635 nm. After measurement, a standard curve was created from the fluorescence intensity of the PpIX standard solutions, and the amount of PpIX in each well was calculated from the standard curve.
In order to correct the amount of PpIX measured by the above method with the amount of protein, the amount of protein contained in each sample of the intracellular PpIX measuring plate was measured. Pierce™ BCA Protein Assay Kit (from Thermo Fisher) was used for measuring the amount of protein. BCA reagent A and BCA reagent B were mixed at a proportion of 50:1 to prepare the BCA reaction solution. […]

[3] = system: cancer cell strains DU145, HT29, HCC2998, MKN7, MDA-MB-231, MCF-7; test: Intracellular and extracellular PpIX amount, combination use of OcTMAB and FTC with ALA (Example 2); format: cell-based; conditions: final concentration ALA 1 mM, OcTMAB 8 μM, FTC 10 μM, 4 hours; compared between combination use groups
Procedure: Six types of cells strains were employed as cancer cell strains: […], large intestine cancer cell strains (HT29, HCC2998), stomach cancer cell strain (MKN7), and mammary gland cancer cell strains (MDA-MB-231, MCF-7). Fumitremorgin C (FTC, from sigma) was dissolved in DMSO to create a 2 mM stock solution, and then adjusted to 40 μM with the RPMI medium. For OcTMAB, the 10 mM stock solution was adjusted with the RPMI medium to 32 μM. The 40 μM FTC-containing RPMI medium was added to an equal amount of 32 μM OcTMAB-containing medium to prepare a 16 μM OcTMAB/20 μM FTC-containing medium. Note that FTC is an inhibitor of ABCG2 (a transporter that extracellularly exports PpIX), and is known as a compound that has the effect of inhibiting extracellular export of PpIX.
Each cancer cell strain was seeded in a 96-well plate (black with transparent bottom) at a density of 1.25×10^4 cells/well (only MDA-MB-231 was seeded at 2.0×10^4 cells/well), and this was cultured overnight at 37/C. After the overnight culture, the culture supernatant was removed, 100 μL each of 2 mM ALA-containing RPMI medium was added to each well. […]
In order to correct the above PpIX amount measurement result with the amount of protein, the amount of protein in each sample for measuring the intracellular PpIX amount was measured. […]

Question: Which “time until metabolized in vivo and excreted” value [1] does the source give for NCC(=O)CCC(=O)O [ALA, 5-aminolevulinic acid] here?
Answer: ≤ 48 h

Question: With O=c1[nH]c2ccccc2n1C1CCN(Cc2ccc(-c3nc4cc5nc[nH]c5cc4nc3-c3ccccc3)cc2)CC1 [Akt inhibitor VIII] as the molecule, how does the “inhibitor concentration at which the decrease of extracellular PpIX amount peaks” value ([2]; 4 hours) read?
Answer: ~5 µM

Question: And the “inhibitor concentration at which the increase in the amount of PpIX accumulated peaks” value ([2]; 4 hours)?
Answer: ~5 µM

Question: What about the “extracellular PpIX amount (corrected with amount of protein)” value [2] of the same molecule?
Answer: decrease of extracellular PpIX amount

Question: What about the “intracellular PpIX amount (corrected with amount of protein)” value [2] of the same molecule?
Answer: increase in the amount of PpIX accumulated

Question: For CCCCCCCCCCCCCC[N+](C)(C)C.[Br-] [MiTMAB], which “extracellular PpIX amount (corrected with amount of protein)” value [2] is on record?
Answer: decrease of extracellular PpIX amount dependent on the concentration of MiTMAB

Question: What about the “intracellular PpIX amount (corrected with amount of protein)” value [2] of the same molecule?
Answer: increase of intracellular PpIX amount dependent on the concentration of MiTMAB

Question: For CCCCCCCCCCCCCCCCCC[N+](C)(C)C.[Br-] [OcTMAB], which “extracellular PpIX amount (corrected with amount of protein)” value [2] is on record?
Answer: decrease of extracellular PpIX amount dependent on the concentration of OcTMAB

Question: What about the “intracellular PpIX amount (corrected with amount of protein)” value [2] of the same molecule?
Answer: increase of intracellular PpIX amount dependent on the concentration of OcTMAB

Question: What about the “extracellular PpIX amount (PpIX extracellular export)” value [3] of the same molecule?
Answer: effect similar to ETC for suppressing PpIX extracellular export

Question: And the “intracellular PpIX amount” value [3]?
Answer: increased intracellular PpIX similar to or more than the ALA and ETC combination use group

Question: With CCCCCCCCCCCCCCCCCC[N+](C)(C)CCN1C(=O)[C@@H]2[C@H](C1=O)[C@H]1CC[C@@H]2O1.[Br-] [RTIL13] as the molecule, how does the “inhibitor concentration at which the increase in the amount of PpIX accumulated peaks” value ([2]; 4 hours) read?
Answer: ~10 µM

Question: What about the “extracellular PpIX amount (corrected with amount of protein)” value [2] of the same molecule?
Answer: decrease of extracellular PpIX amount dependent on the concentration of RTIL13

Question: What about the “intracellular PpIX amount (corrected with amount of protein)” value [2] of the same molecule?
Answer: increase in the amount of PpIX accumulated

Question: With N=c1oc2c(O)c(O)ccc2cc1C(=O)NCCCNC(=O)c1cc2ccc(O)c(O)c2oc1=N [iminodyn22] as the molecule, how does the “extracellular PpIX amount (corrected with amount of protein)” value [2] read?
Answer: no change in the intracellular and extracellular PpIX amounts

Question: And the “intracellular PpIX amount (corrected with amount of protein)” value [2]?
Answer: no change in the intracellular and extracellular PpIX amounts
